These results are taken from paper PMC8951016, “Computational Design and Biological Evaluation of Analogs of Lupin Peptide P5 Endowed with Dual PCSK9/HMG-CoAR Inhibiting Activity” (Pharmaceutics, 2022).

One assay relates to LDLR. Also noted: method as in 3 sources, ref 48 = [48]; doi:10.1111/jfbc.12757; 48. Lammi C. Zanoni C. Arnoldi A. Aiello G. […] (P3), a peptide from lupin protein, absorbed by Caco-2 cells, modulates cholesterol metabolism in HepG2 cells via SREBP-1 activation J. Food B ||| ref 22 = [22]; doi:10.1016/j.jff.2017.02.009; 22. Zanoni C. Aiello G. Arnoldi A. Lammi C. Investigations on the hypocholesterolaemic activity of […] and LTFPGSAED, two peptides from lupin β-conglutin: Focus on LDLR and PCSK9 pathways J. Fu ||| ref 24 = [24]; PMID 33808034; doi:10.3390/nu13030863; 24. Lammi C. Aiello G. Bollati C. Li J. Bartolomei M. Ranaldi G. Ferruzza S. Fassi E.M.A. Grazioso G. Sambuy Y. Trans-Epithelial Transport, Metabolism, and Biological Activity Assessment of the Multi-. To be noted: through activation of SREBP-2; cited from earlier work.

The test system of assay [1] is LDLR on HepG2 cell surface. As to the kind of experiment: In-cell western (ICW), LDLR on HepG2 surface in the presence of PCSK9. It counts as cell-based, human. To be noted: 50 µM + PCSK9 4 µg/mL; Figure 3B. As for the experimental part:
(§1) For the experiments, a total of 3 × 10^4 HepG2 cells/well were seeded in 96-well plates and treated with 4.0 μg/mL PCSK9-WT and 4.0 μg/mL PCSK9 + peptides P5 and/or P5 analogs (50 µM) and vehicle (H2O) for 2 h at 37 °C under 5% CO2 atmosphere. Thus, cells underwent to ICW assay following conditions already optimized. See Supplementary Materials for detailed information. […]
(§2) cLex Co., Nagano, Japan). The peptides (P5, P5-Best, P-H6A, and P5-S7A) were synthe-sized by the company GeneScript (Piscataway, NJ, USA) at >95% purity. The antibody against HMG-CoAR was bought from Abcam (Cambridge, UK). […]
(§3) HMG-CoAR Aactivity Assay. […] Subsequently, the samples were mixed and the absorbance at 340 nm read by the microplate reader Synergy H1 (Winooski, VT, USA) at time 0 and 10 min. The HMG-CoAR-dependent oxidation of NADPH and the inhibition properties of peptides were measured by absorbance reduction, which is directly proportional to enzyme activ- […]
(§4) In Vitro PCSK9-LDLR Binding Assay. […] The reaction was stopped with 2.0 M sulfuric acid and the absorbance at 450nm was measured using the Synergy H1 fluorescent plate reader […]

The target of assay [2] is T1, HMG-CoAR (catalytic domain) (Homo sapiens, UniProt P04035).
T1 construct: finally the HMG-CoAR (cata- lytic domain) (2 µL); purchased Sigma-Aldrich
T1 sequence (P04035 426-888 limits assumed): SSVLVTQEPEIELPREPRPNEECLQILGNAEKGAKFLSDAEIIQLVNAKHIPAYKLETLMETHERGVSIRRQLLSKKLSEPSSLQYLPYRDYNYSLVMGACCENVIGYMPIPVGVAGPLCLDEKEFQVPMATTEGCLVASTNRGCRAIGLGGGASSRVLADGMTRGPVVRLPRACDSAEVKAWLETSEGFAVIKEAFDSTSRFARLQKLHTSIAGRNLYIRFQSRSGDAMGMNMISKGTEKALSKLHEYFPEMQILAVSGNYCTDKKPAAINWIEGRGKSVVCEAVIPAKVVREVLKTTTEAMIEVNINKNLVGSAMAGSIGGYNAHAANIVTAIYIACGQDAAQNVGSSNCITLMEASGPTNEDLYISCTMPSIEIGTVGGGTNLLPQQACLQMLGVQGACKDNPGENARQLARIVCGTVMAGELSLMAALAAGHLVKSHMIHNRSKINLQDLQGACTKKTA
To be noted: parent peptide; read-out: IC50, HMG-CoAR activity (P5); cited from earlier work.

The test system of assay [3] is LDLR on HepG2 cell surface. As to the kind of experiment: ICW, LDLR localized in cellular membranes of HepG2 (peptide alone). The class given is cell-based, human. The conditions noted are these: 50 µM, vs control, average ± SD, four independent experiments in duplicate. As for the experimental part: as §1, §2, §3, §4

Take “LILPKHSDAD [Peptide P5, natural peptide derived from a peptic lupin protein hydrolysate]”: the “LDLR protein level in HepG2 (P5, earlier work, words)” value with LDLR is reported as “increases the LDLR protein level”. The “LDLR level on cell surface in presence of PCSK9” value in assay [1] was “restored”. Moreover, in assay [2], the IC50 was 147 µM. The “increase of LDLR level in cellular membranes of HepG2” value in assay [3] stood at 153.6 ± 16.4%.
